According to patent publication US9776149B2, “Compositions and methods for preparing nanoformulations and systems for nano-delivery using focused acoustics” (Covaris, Inc., priority 2010, dated 2017):

Columns and labels:
[1] = Particle size of drug suspensions before and after focused acoustic processing (Malvern Mastersizer 2000 / Zetasizer Nano ZS-90); format: physicochemical
Text: Particle size distributions of mixtures and/or nanoformulations described herein may be measured using dynamic laser light scattering, also called Photon correlation spectroscopy (e.g., using Malvern Zetasizer-S, Zetasizer Nano ZS-90 or Mastersizer 2000 instruments; Malvern Instruments Inc.; Southborough Mass.). The Malvern Zetasizer-S instrument was used to estimate average particle sizes with a 4 mW He—Ne laser operating at a wavelength of 633 nm and an avalanche photodiode detector (APD). The average size of particles in a mixture may be estimated as the mean hydrodynamic size. The particle size distribution may be estimated according to polydispersity index (PDI), which is known in the art as a measure of the tightness of a distribution. The average size of particles and the PDI of mixtures and nanoformulations discussed herein are calculated according to the International Standard on dynamic light scattering, ISO 13321.
Suspension mixtures were prepared in water (deionized and purified by a Barnstead water purification system), methyl cellulose (from Sigma Aldrich) and sodium lauryl sulfate (from Fisher Scientific) for Ibuprofen (from Spectrum Chemicals), Cinnarizine (from Spectrum Chemicals), Indomethacin (from Spectrum Chemicals) and Griseofulvin (from MP Bio). The initial particle sizes of these suspension mixtures was reduced subject to focused acoustic processing using a Covaris SF220 High Performance Formulation Processing System under 150 Watts of power. Particle size distributions were measured using a Malvern Zetasizer Nano ZS-90 in the nanometer particle size range and a Malvern Mastersizer 2000 in the micron particle size range.
Suspension mixtures included water, 0.5% methyl cellulose and 0.1% sodium lauryl sulfate for Ibuprofen, Cinnarizine, Indomethacin and Griseofulvin at 15 mg/mL for batches of 2 mL, 12 mL and 18 mL. The 2 mL, 12 mL and 18 mL batches were subject to focused acoustic processing for 5 minutes, 5 minutes and 10 minutes, respectively. […] The image 400 prior to exposure to the focused acoustics depicts particles that are substantially larger (e.g., 15-20×) than corresponding particles shown in the image 402 after treatment of the particles to the focused acoustics. Particle size results for each of the four compounds are provided in Table 1 (particle sizes are noted as d90 unless specified otherwise).
The concentration of Ibuprofen was then varied in respective suspensions at fixed volumes of 2 mL, 12 mL and 18 mL. […] For instance, after 10 minutes of focused acoustic processing, the percent difference of the greatest variation in d90 particle size (i.e., 39.53-34.04=5.49) between concentrations (i.e., for 1 mg/mL, 15 mg/mL and 100 mg/mL) as compared to the initial d90 particle size (i.e., 203.67) is less than 3%.
Suspension mixtures included water, 0.025% methyl cellulose and 0.1% sodium lauryl sulfate for Ibuprofen, Cinnarizine, Indomethacin and Griseofulvin at 5 mg/mL for 2 mL batches. Each batch was subject to focused acoustic processing for 15 minutes and 30 minutes, respectively. Table 3 lists the average particle size results for each of the four compounds. Within 15 minutes, nano-suspensions were generated with an average particle size ranging between 100 nm and 280 nm for each of the mixtures. Within 30 minutes, an average particle size range of between 20 nm and 97 nm was achieved.
Using a scale-up system and without changing the mechanical attributes of the particle size reduction process, the Ibuprofen suspension mixture was increased to 250 mL. The flow rate was set to 30 mL/min. […] Suspension aliquots were analyzed by HPLC using a stability-indicating method as a guide. […] Through 60 minutes of focused acoustic processing, the particle size distribution of the suspension was measured to have a relative standard deviation of 0.38%. […]

[2] = Homogeneity and chemical stability of 250 mL Ibuprofen suspension (sampling at different depths, HPLC); format: physicochemical
Description: Using a scale-up system and without changing the mechanical attributes of the particle size reduction process, the Ibuprofen suspension mixture was increased to 250 mL. The flow rate was set to 30 mL/min. […] Suspension aliquots were analyzed by HPLC using a stability-indicating method as a guide. […] Through 60 minutes of focused acoustic processing, the particle size distribution of the suspension was measured to have a relative standard deviation of 0.38%. […] FIG. 7 illustrates the results of such size reduction over time for d90 particle size 410, d50 particle size 412 and d10 particle size 414.

[3] = 15 mg/mL suspension, 2 mL, 5 min
[4] = 15 mg/mL suspension, 12 mL, 5 min
[5] = 15 mg/mL suspension, 18 mL, 10 min
[6] = 15 mg/mL suspension, Initial (before focused acoustic processing)
[7] = 1, 15 and 100 mg/mL, after 10 minutes of processing
[8] = nano-suspension, 5 mg/mL, 2 mL batch, 15 min
[9] = nano-suspension, 5 mg/mL, 2 mL batch, 30 min
[10] = nano-suspension, 5 mg/mL, 2 mL batch, Initial

SMILES: CC(C)Cc1ccc(C(C)C(=O)O)cc1 (stereo not drawn) [Ibuprofen]
- % of particles below 20 microns [1, 3]: (100% of particles
- Particle size (d90) [1, 3]: 12.55 microns
- % of particles below 40 microns [1, 4]: (97% of particles
- Particle size (d90) [1, 4]: 33.35 microns
- % of particles below 40 microns [1, 5]: (97% of particles
- Particle size (d90) [1, 5]: 39.53 microns
- % of particles above 40 microns ([1]; 15 mg/mL suspension, Initial): (97% of particles
- Particle size (d90) [1, 6]: 203.67 microns
- Particles prior to focused acoustics larger than particles after treatment (micrographs, FIG. 6) ([1]; 15 mg/mL, 50× magnification): 15-20 ×
- Greatest variation in d90 particle size between concentrations [1, 7]: 5.49
- Percent difference of greatest variation in d90 between concentrations compared to initial d90 [1, 7]: less than 3%
- Percentage of particles below 40 microns ([1]; 250 mL scale-up, 15 min): 90%
- d10 ([1]; 250 mL scale-up, 15 min): 6.805 microns
- d50 ([1]; 250 mL scale-up, 15 min): 21.701 microns
- d90 ([1]; 250 mL scale-up, 15 min): 39.726 microns
- Percentage of particles below 40 microns ([1]; 250 mL scale-up, 30 min): 93.57%
- d10 ([1]; 250 mL scale-up, 30 min): 6.023 microns
- d50 ([1]; 250 mL scale-up, 30 min): 19.055 microns
- d90 ([1]; 250 mL scale-up, 30 min): 36.328 microns
- Percentage of particles below 40 microns ([1]; 250 mL scale-up, 45 min): 98.31%
- d10 ([1]; 250 mL scale-up, 45 min): 3.583 microns
- d50 ([1]; 250 mL scale-up, 45 min): 16.167 microns
- d90 ([1]; 250 mL scale-up, 45 min): 31.091 microns
- Percentage of particles below 40 microns ([1]; 250 mL scale-up, 60 min): 98.39%
- d10 ([1]; 250 mL scale-up, 60 min): 3.351 microns
- d50 ([1]; 250 mL scale-up, 60 min): 14.843 microns
- d90 ([1]; 250 mL scale-up, 60 min): 28.005 microns
- Percentage of particles below 40 microns ([1]; 250 mL scale-up, Initial): 5%
- d10 ([1]; 250 mL scale-up, Initial): 50 microns
- d50 ([1]; 250 mL scale-up, Initial): 97.834 microns
- d90 ([1]; 250 mL scale-up, Initial): 203.67 microns
- Particle size (d90) ([1]; Table 2, 1 mg/mL, 2 mL, 5 min): 12.55 microns
- Particle size (d90) ([1]; Table 2, 1 mg/mL, 12 mL, 5 min): 33.35 microns
- Particle size (d90) ([1]; Table 2, 1 mg/mL, 18 mL, 10 min): 39.53 microns
- Particle size (d90) ([1]; Table 2, 1 mg/mL, Initial): 203.67 microns
- Particle size (d90) ([1]; Table 2, 15 mg/mL, 2 mL, 5 min): 19.03 microns
- Particle size (d90) ([1]; Table 2, 15 mg/mL, 12 mL, 5 min): 34.88 microns
- Particle size (d90) ([1]; Table 2, 15 mg/mL, 18 mL, 10 min): 34.04 microns
- Particle size (d90) ([1]; Table 2, 15 mg/mL, Initial): 203.67 microns
- Particle size (d90) ([1]; Table 2, 100 mg/mL, 2 mL, 5 min): 29.54 microns
- Particle size (d90) ([1]; Table 2, 100 mg/mL, 12 mL, 5 min): 37.78 microns
- Particle size (d90) ([1]; Table 2, 100 mg/mL, 18 mL, 10 min): 35.53 microns
- Particle size (d90) ([1]; Table 2, 100 mg/mL, Initial): 203.67 microns
- Average particle size [1, 8]: 110 nm
- Average particle size [1, 9]: 97 nm
- Average particle size [1, 10]: 203.67 microns
- Homogeneity of suspension ([2]; first measured time point of 15 minutes): homogeneous
- Chemical stability (impurity growth, HPLC) ([2]; over 60 minutes of processing): no impurity growth

SMILES: COc1ccc2c(c1)c(CC(=O)O)c(C)n2C(=O)c1ccc(Cl)cc1 [Indomethacin]
- Particle size (d90) [1, 3]: 20.88 microns
- Particle size (d90) [1, 4]: 38.32 microns
- Particle size (d90) [1, 5]: 28.73 microns
- Particle size (d90) [1, 6]: 239.88 microns
- Average particle size ([1]; in water, after exposure to focused acoustic energy (FIG. 12)): approximately 5 microns
- Average particle size [1, 8]: 127.4 nm
- Average particle size [1, 9]: 20 nm
- Average particle size [1, 10]: 239.88 microns

SMILES: COC1=CC(=O)C[C@@H](C)[C@]12Oc1c(Cl)c(OC)cc(OC)c1C2=O [Griseofulvin]
- Particle size (d90) [1, 3]: 16.86 microns
- Particle size (d90) [1, 4]: 31.45 microns
- Particle size (d90) [1, 5]: 31.01 microns
- Particle size (d90) [1, 6]: 44.45 microns
- Average particle size [1, 8]: 100 nm
- Average particle size [1, 9]: 90 nm
- Average particle size [1, 10]: 44.45 microns

SMILES: O=c1c(O)c(-c2ccc(O)c(O)c2)oc2cc(O)cc(O)c12 [Quercetin]
- Average particle size ([1]; 250 mL in water, no surfactant, 24 degrees C., in under 80 minutes): less than 10 microns
- Average particle size ([1]; 250 mL in water, no surfactant, before processing): over 200 microns

SMILES: C(=C\c1ccccc1)/CN1CCN(C(c2ccccc2)c2ccccc2)CC1 [Cinnarizine]
- Particle size (d90) [1, 3]: 37.29 microns
- Particle size (d90) [1, 4]: 41.73 microns
- Particle size (d90) [1, 5]: 43.00 microns
- Particle size (d90) [1, 6]: 149.17 microns
- Average particle size ([1]; 250 mL scale-up, 1 hour of processing): 1 micron
- Average particle size ([1]; 250 mL scale-up, about 9 hours): approximately 200 nm
- Average particle size ([1]; 250 mL scale-up, starting): approximately 200 microns
- Average particle size [1, 8]: 280 nm
- Average particle size [1, 9]: 56.85 nm
- Average particle size [1, 10]: 149.17 microns
